Data on 25 molecules can be found in patent US7947738B2, “Bicyclic γ-amino acid derivative” (Daiichi Sankyo Company, Ltd., priority 2007, dated 2011).

SMILES strings stand for the structures. Where a name gives a salt, the structure may show the parent alone. Read-outs that look alike come from different tables or passages of the source.

Data set [1] concerns the target T1, human Cacna2d1 (human calcium channel subunit α2δ1) (Homo sapiens, UniProt P54289).
T1 construct: 293 cells were transfected with the human Cacna2d1 expression plasmid pRK/hCacna2d1 constructed in paragraph a); expressed in transfected cells; membrane fraction
The data set is described as follows: Cacna2d1/GBP binding reaction inhibitory activity (3H-GBP binding to human Cacna2d1-expressing cell membrane fraction). To be noted: concentration inhibiting 50% of Cacna2d1/GBP binding, 3H-GBP 4.5 nM, 4° C. As for the experimental part:
293 cells were transfected with the human Cacna2d1 expression plasmid pRK/hCacna2d1 constructed in paragraph a), and a cell line stably expressing human Cacna2d1 was obtained with human Cacna2d1 protein expression as an index. Specifically, 2×10^6 293 cells were inoculated onto a φ6 cm dish and cultured for 12 hours. Then, the cells were cotransfected with 5 μg of pRK/hCacna2d1 and 0.5 μg of a neomycin-resistant gene expression plasmid pSV2neo (Clontech) using a transfection reagent Lipofectamine Plus (Invitrogen Corp.) according to the protocol provided for the reagent.
The human Cacna2d1-expressing 293 cells obtained in paragraph b) were cultured in large scale in DMEM (Invitrogen Corp.) supplemented with 10% fetal bovine serum (Cansera International, Inc.) and 500 μg/ml G418 (Invitrogen Corp.), and the cells were collected. A protease inhibitor (Complete EDTA free (Roche Applied Science)) was added in an amount recommended for the reagent to a binding assay buffer (10 mM MOPS (pH 7.4), 10 mM HEPES (pH 7.4), 100 mM NaCl) to prepare a membrane fraction preparation buffer. The collected cells were washed with the membrane fraction preparation buffer and then homogenized using an ultrasonicator. Then, the homogenate was centrifuged at 12,000 rpm at 4° C. for 1 hour using a centrifuge. The supernatant was discarded, and the precipitate was suspended in the membrane fraction preparation buffer. The procedure from the ultrasonication using a ultrasonicator to the suspension of the precipitate after centrifugation was further repeated three times, and the obtained suspension was used as a human Cacna2d1-expressing cell membrane fraction. The total level of proteins contained in the membrane fraction was calculated from UV absorbance at a wavelength of 280 nm.
The human Cacna2d1-expressing cell membrane fraction and GBP labeled with a radioisotope ^3H (hereinafter, referred to as ^3H-GBP; Tocris Cookson Ltd.) were diluted with a binding assay buffer (10 mM MOPS (pH 7.4), 10 mM HEPES (pH 7.4), 100 mM NaCl) at a final concentration of 2.5 mg/ml in terms of the total protein level and a final ^3H-GBP concentration of 4.5 nM, respectively, to prepare 120 μl of a reaction solution, which was in turn left standing at 4° C. for 3 hours. This reaction product was added to wells of a filter plate (UniFilter 350 GF/B (Whatman)) and filtered through the filter. Then, a washing procedure involving the addition of 350 μl of a binding assay buffer (10 mM MOPS (pH 7.4), 10 mM HEPES (pH 7.4), 100 mM NaCl) and filtration through the filter was repeated three times. The filter plate was thoroughly dried, and the underside was sealed. After addition of 50 μl of Microscint 20 (PerkinElmer Inc.), the upper surface was also sealed, and radiation derived from the radioisotope ^3H remaining on the filter was counted using TopCount (PerkinElmer Inc.). From the obtained value, a value obtained by adding unlabeled GBP (SIGMA-ALDRICH INC.) at a final concentration of 20 μM to the present assay was subtracted as that derived from nonspecific adsorption, and the obtained value was used as the specific binding level of ^3H-GBP to Cacna2d1 (unit: “count”).
Each test compound was added at various concentrations to the Cacna2d1/GBP binding reaction detection assay constructed in paragraph a), and the binding level was measured by the method described in paragraph a). Then, with the Cacna2d1/GBP specific binding level obtained by the addition of the compound at a concentration of x nM defined as “binding level [x]” and the Cacna2d1/GBP binding inhibitory rate thereagainst defined as “inhibitory rate [x]”, the inhibitory rate (%) was determined based on the following equation: Inhibitory rate [x](%)=(1−(binding level [x]/binding level))×100, wherein the binding level refers to the binding level of ^3H-GBP obtained without the addition of the compound.
The inhibitory rate was plotted against the concentration.

Data set [2] concerns mice suffering from mechanical hyperalgesia. The data set is described as follows: Mechanical hyperalgesia assay (von Frey filament pain score). To be noted: oral administration, dose that offers 50% improvement relative to the pain score of vehicle-administered group. It counts as in vivo. As for the experimental part: In the present invention, mice suffering from mechanical hyperalgesia were used in evaluation.
The mice were acclimatized for 30 minutes in a plastic cage for measurement. Then, the test compound was orally administered to the mice, which were in turn evaluated for mechanical hyperalgesia at a measurement time predetermined by a person in charge of the test. The evaluation of mechanical hyperalgesia was conducted by a partial modification of the method of Takasaki et al. (Pain 86 95-101, 2000) to confirm the effect of the test compound on mechanical hyperalgesia. Specifically, mechanical hyperalgesia was evaluated by assessing, based on scores according to the following criteria, behavior induced by pressing 1.4 g of von Frey filament onto the sole of the animal:
0: no response, 1: withdrawal from von Frey filament, and 2: shaking or licking of the hind paw immediately after the stimulation.
In one measurement, 6 stimulations were given to the mice, and the total score was used as a pain score.
The test compound was evaluated by calculating ID50, which is the dose of the compound that offers 50% improvement relative to the pain score of a vehicle-administered group.

The test system of another data set is postherpetic neuralgia. Particulars: patients' own evaluations; Non-Patent Document 3; cited from earlier work.
Data set [3] concerns painful diabetic neuropathy. To be noted: patients' own evaluations; Non-Patent Document 4; cited from earlier work.

T1 sequence (P54289 25-1091 isoform P54289-2 limits assumed): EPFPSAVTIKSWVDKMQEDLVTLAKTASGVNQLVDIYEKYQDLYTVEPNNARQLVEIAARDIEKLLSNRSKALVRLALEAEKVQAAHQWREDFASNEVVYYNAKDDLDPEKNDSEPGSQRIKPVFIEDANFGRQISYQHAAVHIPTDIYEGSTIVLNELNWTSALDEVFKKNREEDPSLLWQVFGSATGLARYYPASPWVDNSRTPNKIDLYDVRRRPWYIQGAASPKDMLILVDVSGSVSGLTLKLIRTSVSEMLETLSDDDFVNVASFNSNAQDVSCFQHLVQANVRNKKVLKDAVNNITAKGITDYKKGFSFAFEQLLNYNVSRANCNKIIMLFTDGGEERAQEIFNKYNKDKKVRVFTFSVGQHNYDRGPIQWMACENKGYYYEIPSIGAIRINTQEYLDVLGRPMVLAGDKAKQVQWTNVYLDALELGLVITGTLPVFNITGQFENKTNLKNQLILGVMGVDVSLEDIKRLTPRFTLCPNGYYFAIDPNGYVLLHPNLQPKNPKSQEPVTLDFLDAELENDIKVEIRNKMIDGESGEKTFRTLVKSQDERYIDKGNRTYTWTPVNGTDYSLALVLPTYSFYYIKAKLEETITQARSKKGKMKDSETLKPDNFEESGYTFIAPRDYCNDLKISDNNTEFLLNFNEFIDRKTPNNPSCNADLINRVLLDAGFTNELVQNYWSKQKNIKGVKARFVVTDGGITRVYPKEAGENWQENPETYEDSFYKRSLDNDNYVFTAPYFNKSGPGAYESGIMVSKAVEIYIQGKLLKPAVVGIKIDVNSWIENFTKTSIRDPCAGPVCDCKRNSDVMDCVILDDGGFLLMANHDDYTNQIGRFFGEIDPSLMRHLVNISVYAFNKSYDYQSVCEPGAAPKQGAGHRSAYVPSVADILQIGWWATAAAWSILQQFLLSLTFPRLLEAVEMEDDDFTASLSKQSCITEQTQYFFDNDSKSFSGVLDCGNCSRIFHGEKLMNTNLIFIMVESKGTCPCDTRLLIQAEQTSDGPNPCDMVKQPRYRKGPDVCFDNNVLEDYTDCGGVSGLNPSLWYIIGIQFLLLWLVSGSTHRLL

A word on the IC50: it is the point on the concentration scale where inhibition reaches its midpoint. Consider `CCC(C)C1=CC2C(C1)CC2(CN)CC(=O)O` (mixture of isomers) [Example 13, (±)-[(1S,5R,6R)-6-aminomethyl-3-sec-bicyclo[3.2.0]hept-3-en-6-yl]acetic acid], for which the IC50 in data set [1] (IC50 (nM)) came out at 200 nM. What is called melting point is the temperature, or range, at which the solid turns liquid. For `CCC1=C[C@H]2[C@@H](C1)C[C@@]2(CNO)CC(=O)O.Cl` (racemic), the melting point lay in the range of 98 to 99 °C. `NC[C@@]1(CC(=O)O)C[C@@H]2CC=C[C@@H]21` (racemic) [Example 1, (±)-[(1S,5R,6R)-6-(aminomethyl)bicyclo[3.2.0]hept-3-en-6-yl]acetic acid]: in data set [1] (IC50 (nM)), the IC50 turned out to be 51 nM. For the molecule `CC1=C[C@H]2[C@@H](C1)C[C@@]2(CN)CC(=O)O` (racemic) [Example 7, (±)-[(1S,5R,6R)-6-aminomethyl-3-methylbicyclo[3.2.0]hept-3-en-6-yl]acetic acid], the IC50 in data set [1] (IC50 (nM)) was found to be 36 nM. On to `CCC1=C[C@H]2[C@@H](C1)C[C@@]2(CN)CC(=O)O` (racemic) [Example 8, (±)-[(1S,5R,6R)-6-aminomethyl-3-ethylbicyclo[3.2.0]hept-3-en-6-yl]acetic acid], for which, in data set [1] (IC50 (nM)), the IC50 stood at 28 nM. Regarding `CCCC1=C[C@H]2[C@@H](C1)C[C@@]2(CN)CC(=O)O` (racemic) [Example 9, (±)-[(1S,5R,6R)-6-aminomethyl-3-propylbicyclo[3.2.0]hept-3-en-6-yl]acetic acid], the IC50 in data set [1] (IC50 (nM)) was found to be 32 nM.

In the case of `CCCCC1=C[C@H]2[C@@H](C1)C[C@@]2(CN)CC(=O)O` (racemic) [Example 10, (±)-[(1S,5R,6R)-6-aminomethyl-3-butylbicyclo[3.2.0]hept-3-en-6-yl]acetic acid], the IC50 in data set [1] (IC50 (nM)) stood at 28 nM. As for `CC(C)C1=C[C@H]2[C@@H](C1)C[C@@]2(CN)CC(=O)O` (racemic) [Example 11, (±)-[(1S,5R,6R)-6-aminomethyl-3-isopropylbicyclo[3.2.0]hept-3-en-6-yl]acetic acid], the IC50 in data set [1] (IC50 (nM)) stood at 89 nM. As for `CC(C)CC1=C[C@H]2[C@@H](C1)C[C@@]2(CN)CC(=O)O` (racemic) [Example 12, (±)-[(1S,5R,6R)-6-aminomethyl-3-isobutylbicyclo[3.2.0]hept-3-en-6-yl]acetic acid], the IC50 in data set [1] (IC50 (nM)) turned out to be 32 nM. For the molecule `NC[C@@]1(CC(=O)O)C[C@@H]2CC(C3CCCC3)=C[C@@H]21` (racemic) [Example 14, (±)-[(1S,5R,6R)-6-aminomethyl-3-cyclopentylbicyclo[3.2.0]hept-3-en-6-yl]acetic acid], the IC50 in data set [1] (IC50 (nM)) is 55 nM. As to `C=CCC1=C[C@H]2[C@@H](C1)C[C@@]2(CN)CC(=O)O` (racemic) [Example 15, (±)-[(1S,5R,6R)-6-aminomethyl-3-allylbicyclo[3.2.0]hept-3-en-6-yl]acetic acid], the IC50 in data set [1] (IC50 (nM)) came to 73 nM. The same measure, in the same setting: the same measure for `C[C@]12C=CC[C@H]1C[C@]2(CN)CC(=O)O` (racemic) [Example 16, (±)-[(1S,5R,6S)-6-aminomethyl-5-methylbicyclo[3.2.0]hept-3-en-6-yl]acetic acid]: 65 nM; for `CC1C=C[C@@H]2[C@H]1C[C@@]2(CN)CC(=O)O` (mixture of isomers) [Example 17, (±)-[(1S,5R,6R)-6-aminomethyl-2-methylbicyclo[3.2.0]hept-3-en-6-yl]acetic acid]: 120 nM. Consider `CC(=O)OCC1=C[C@H]2[C@@H](C1)C[C@@]2(CN)CC(=O)O` (racemic) [Example 18, (±)-[(1R,5R,6R)-3-(acetoxymethyl)-6-(aminomethyl)bicyclo[3.2.0]hept-3-en-6-yl]acetic acid], for which the IC50 in data set [1] (read-out: IC50) came to 670 nM. For `CC1=C(C)[C@H]2[C@@H](C1)C[C@@]2(CN)CC(=O)O` (racemic) [Example 20, (±)-[(1S,5R,6R)-6-aminomethyl-3,4-dimethylbicyclo[3.2.0]hept-3-en-6-yl]acetic acid p-toluenesulfonate], the IC50 in data set [1] (IC50 (nM)) turned out to be 100 nM.

Turning to `CSCC1=C[C@H]2[C@@H](C1)C[C@@]2(CN)CC(=O)O` (racemic) [Example 24, (±)-{(1R,5R,6R)-6-aminomethyl-3-[(methylthio)methyl]bicyclo[3.2.0]hept-3-en-6-yl}acetic acid], the IC50 in data set [1] (IC50 (nM)) was determined as 85 nM. Take `CCC1=C[C@@H]2[C@H](C1)C[C@]2(CN)CC(=O)O` (single isomer, unassigned) [Example 21]: the IC50 in data set [1] (IC50 (nM)) turned out to be 14 nM.

`CCC1=C[C@H]2[C@@H](C1)C[C@@]2(CN)CC(=O)O` (single isomer, unassigned) [Example 23]: in data set [1] (IC50 (nM)), the IC50 was found to be 41 nM. For the molecule `NC[C@]1(CC(=O)O)C[C@H]2CC=C[C@H]21` [Example 2, [(1R,5S,6S)-6-(aminomethyl)bicyclo[3.2.0]hept-3-en-6-yl]acetic acid], the IC50 in data set [1] (IC50 (nM)) worked out at 27 nM. In data set [2], this molecule yielded an ID50 of 10.4 mg/kg. `NC[C@]1(CC(=O)O)C[C@H]2CC=C[C@H]21` [Example 5, [(1R,5S,6S)-6-(aminomethyl)bicyclo[3.2.0]hept-3-en-6-yl]acetic acid hydrochloride]: in data set [1] (IC50 (nM)), the IC50 worked out at 24 nM. In the case of `Cl.NC[C@]1(CC(=O)O)C[C@H]2CC=C[C@H]21` [Example 6, [(1R,5S,6S)-6-(aminomethyl)bicyclo[3.2.0]hept-3-en-6-yl]acetic acid benzenesulfonate], the melting point was 161 to 162 °C. Besides, the IC50 in data set [1] (IC50 (nM)) was found to be 26 nM. Regarding `CCC1=C[C@@H]2[C@H](C1)C[C@]2(CN)CC(=O)O` [Example 22, [(1R,5S,6S)-6-aminomethyl-3-ethylbicyclo[3.2.0]hept-3-en-6-yl]acetic acid p-toluenesulfonate], the IC50 in data set [1] (IC50 (nM)) is 10 nM. With `CCC1=C[C@@H]2[C@H](C1)C[C@]2(CN)CC(=O)O` [Example 31, [(1R,5S,6S)-6-(aminomethyl)-3-ethylbicyclo[3.2.0]hept-3-en-6-yl]acetic acid benzenesulfonate], in data set [1] (IC50 (nM)), the IC50 turned out to be 14 nM. With `NCC1(CC(=O)O)CCCCC1` [gabapentine], in the data set on postherpetic neuralgia, the “efficacy in the treatment of postherpetic neuralgia” value is listed as “approximately 60%”. Turning to `CC(C)C[C@H](CN)CC(=O)O` [pregabalin], in data set [3], the “efficacy in the treatment of painful diabetic neuropathy” value was “approximately 50%”.
